Measured values reported in patent publication US7166634B2, “Bis-indole pyrroles useful as antimicrobials agents” (Nereus Pharmaceuticals, Inc., priority 2004, dated 2007).

test system: S. epidermidis - ATCC 700578; test: MIC, broth microdilution (NCCLS M7-A5); assay type: cell-based; parameters: Staph Epi 700578 MIC: unit not given here; conditions: Table 4; averages of 2 experiments, * single experiment; both values given when differing >2 fold
Description: (§1) Minimum inhibitory concentrations (MICs) are determined according to the National Committee for Clinical Laboratory Standards (NCCLS) susceptibility test guideline M7-A5 (Ferraro, M. 2001 Methods for Dilution Antimicrobial Susceptibility Tests for Bacteria that Grow Aerobically; Approved Standard (NCCLS). National Committee for Clinical Laboratory Standards (NCCLS), Villanova) to quantify the antimicrobial activity of the compounds of the present embodiment against various pathogenic bacteria. Susceptibility testing is performed by broth microdilution in accordance with National Committee for Clinical Laboratory Standards (NCCLS) guidelines. This procedure entails combining the test compounds with a standardized number of cells, incubating at the temperature and amount of time appropriate for each particular organism, and visually scoring the concentration at which no growth was apparent in the test wells. The panel includes both drug sensitive and drug resistant isolates of both gram-positive and gram-negative bacteria, including: S. aureus (both MSSA and MRSA), S. pneumoniae (wild type and penicillin-resistant), vancomycin-sensitive E. faecalis, vancomycin-resistant E. faecium, E. coli, H. influenzae and P. aeruginosa.
(§2) Susceptibility testing was performed by broth microdilution in accordance with National Committee for Clinical Laboratory Standards (NCCLS) guidelines. Antimicrobial data for compounds of Formulae II, III, IV, VI, VII, VIII, IX, XII, XIII, XIV, XV′, XV, XVI, XVII, XVIII, XXI′, XXII, XXIII, XXIV, and XXV are shown in Tables 3, 4 and 5.

SMILES	Staph Epi 700578 MIC
COC(=O)c1[nH]c(C(=O)OC)c(-c2c[nH]c3ccccc23)c1-c1c[nH]c2ccccc12 [IX]	16
O=C(O)c1[nH]c(C(=O)O)c(-c2c[nH]c3ccc(Cl)cc23)c1-c1c[nH]c2ccc(Cl)cc12 [VIII]	>16
O=C(O)c1[nH]cc(-c2c[nH]c3ccc(Cl)cc23)c1-c1c[nH]c2ccc(Cl)cc12 [VII]	16*
COC(=O)c1[nH]c(C(=O)OC)c(-c2c[nH]c3ncccc23)c1-c1c[nH]c2ccc(Cl)cc12 [XIII]	8*

test system: E. faecalis - Van^s (VSE 29212); test: MIC, broth microdilution (NCCLS M7-A5); assay type: cell-based; parameters: VSE 29212 MIC: unit not given here; conditions: Table 4; averages of 2 experiments, * single experiment; both values given when differing >2 fold
Description: as §1, §2

SMILES	VSE 29212 MIC
COC(=O)c1[nH]c(C(=O)OC)c(-c2c[nH]c3ccccc23)c1-c1c[nH]c2ccccc12 [IX]	>32
O=C(O)c1[nH]c(C(=O)O)c(-c2c[nH]c3ccc(Cl)cc23)c1-c1c[nH]c2ccc(Cl)cc12 [VIII]	>16
O=C(O)c1[nH]cc(-c2c[nH]c3ccc(Cl)cc23)c1-c1c[nH]c2ccc(Cl)cc12 [VII]	>32*
COC(=O)c1[nH]c(C(=O)OC)c(-c2c[nH]c3ncccc23)c1-c1c[nH]c2ccc(Cl)cc12 [XIII]	16*

test system: E. coli - imp; test: MIC, broth microdilution (NCCLS M7-A5); assay type: cell-based; conditions: Table 5
Description: as §1, §2

SMILES	E. coli imp MIC [µg/mL]
COC(=O)c1[nH]c(C(=O)OC)c(-c2c[nH]c3ccccc23)c1-c1c[nH]c2ccccc12 [IX]	>32
O=C(O)c1[nH]c(C(=O)O)c(-c2c[nH]c3ccc(Cl)cc23)c1-c1c[nH]c2ccc(Cl)cc12 [VIII]	>16
O=C(O)c1[nH]cc(-c2c[nH]c3ccc(Cl)cc23)c1-c1c[nH]c2ccc(Cl)cc12 [VII]	>32
COC(=O)c1[nH]c(C(=O)OC)c(-c2c[nH]c3ncccc23)c1-c1c[nH]c2ccc(Cl)cc12 [XIII]	>32

test system: S. aureus - MSSA (29213); test: MIC, broth microdilution (NCCLS M7-A5); assay type: cell-based; conditions: Table 4; averages of 2 experiments, * single experiment; both values given when differing >2 fold; in µg/mL
Description: as §1, §2

SMILES	MSSA 29213 MIC
COC(=O)c1[nH]c(C(=O)OC)c(-c2c[nH]c3ccccc23)c1-c1c[nH]c2ccccc12 [IX]	>32
O=C(O)c1[nH]c(C(=O)O)c(-c2c[nH]c3ccc(Cl)cc23)c1-c1c[nH]c2ccc(Cl)cc12 [VIII]	>16
O=C(O)c1[nH]cc(-c2c[nH]c3ccc(Cl)cc23)c1-c1c[nH]c2ccc(Cl)cc12 [VII]	12*
COC(=O)c1[nH]c(C(=O)OC)c(-c2c[nH]c3ncccc23)c1-c1c[nH]c2ccc(Cl)cc12 [XIII]	3*

test system: S. aureus - MRSA (43300); test: MIC, broth microdilution (NCCLS M7-A5); assay type: cell-based; conditions: Table 4; averages of 2 experiments, * single experiment; both values given when differing >2 fold; in µg/mL
Description: as §1, §2

SMILES	MRSA 43300 MIC
COC(=O)c1[nH]c(C(=O)OC)c(-c2c[nH]c3ccccc23)c1-c1c[nH]c2ccccc12 [IX]	>32
O=C(O)c1[nH]c(C(=O)O)c(-c2c[nH]c3ccc(Cl)cc23)c1-c1c[nH]c2ccc(Cl)cc12 [VIII]	>16
O=C(O)c1[nH]cc(-c2c[nH]c3ccc(Cl)cc23)c1-c1c[nH]c2ccc(Cl)cc12 [VII]	16*
COC(=O)c1[nH]c(C(=O)OC)c(-c2c[nH]c3ncccc23)c1-c1c[nH]c2ccc(Cl)cc12 [XIII]	4*

test system: H. influenzae - ATCC 49766; test: MIC, broth microdilution (NCCLS M7-A5); assay type: cell-based; conditions: Table 4 (MIC); averages of 2 experiments, * single experiment; both values given when differing >2 fold
Description: as §1, §2

SMILES	H. inf. 49766
COC(=O)c1[nH]c(C(=O)OC)c(-c2c[nH]c3ccccc23)c1-c1c[nH]c2ccccc12 [IX]	>32
O=C(O)c1[nH]c(C(=O)O)c(-c2c[nH]c3ccc(Cl)cc23)c1-c1c[nH]c2ccc(Cl)cc12 [VIII]	>16
O=C(O)c1[nH]cc(-c2c[nH]c3ccc(Cl)cc23)c1-c1c[nH]c2ccc(Cl)cc12 [VII]	>32*
COC(=O)c1[nH]c(C(=O)OC)c(-c2c[nH]c3ncccc23)c1-c1c[nH]c2ccc(Cl)cc12 [XIII]	>32*

test system: S. pneumoniae - penicillin resistant (51915); test: MIC, broth microdilution (NCCLS M7-A5); assay type: cell-based; conditions: Table 4; averages of 2 experiments, * single experiment; both values given when differing >2 fold; in µg/mL
Description: as §1, §2

SMILES	S. pneumo 51915 Pen R MIC
COC(=O)c1[nH]c(C(=O)OC)c(-c2c[nH]c3ccccc23)c1-c1c[nH]c2ccccc12 [IX]	>32
O=C(O)c1[nH]c(C(=O)O)c(-c2c[nH]c3ccc(Cl)cc23)c1-c1c[nH]c2ccc(Cl)cc12 [VIII]	>16
O=C(O)c1[nH]cc(-c2c[nH]c3ccc(Cl)cc23)c1-c1c[nH]c2ccc(Cl)cc12 [VII]	>32*
COC(=O)c1[nH]c(C(=O)OC)c(-c2c[nH]c3ncccc23)c1-c1c[nH]c2ccc(Cl)cc12 [XIII]	>32*

test system: S. pneumoniae - penicillin sensitive (49619); test: MIC, broth microdilution (NCCLS M7-A5); assay type: cell-based; conditions: Table 4; averages of 2 experiments, * single experiment; both values given when differing >2 fold
Description: as §1, §2

SMILES	S. pneumo 49619 Pen. S MIC
COC(=O)c1[nH]c(C(=O)OC)c(-c2c[nH]c3ccccc23)c1-c1c[nH]c2ccccc12 [IX]	32, >32

same assay, conditions: Table 4; averages of 2 experiments, * single experiment; both values given when differing >2 fold; in µg/mL

SMILES	S. pneumo 49619 Pen. S MIC
O=C(O)c1[nH]c(C(=O)O)c(-c2c[nH]c3ccc(Cl)cc23)c1-c1c[nH]c2ccc(Cl)cc12 [VIII]	>16
O=C(O)c1[nH]cc(-c2c[nH]c3ccc(Cl)cc23)c1-c1c[nH]c2ccc(Cl)cc12 [VII]	>32*
COC(=O)c1[nH]c(C(=O)OC)c(-c2c[nH]c3ncccc23)c1-c1c[nH]c2ccc(Cl)cc12 [XIII]	>32*

test system: H. influenzae - ATCC 49247; test: MIC, broth microdilution (NCCLS M7-A5); assay type: cell-based; conditions: Table 4 (MIC); averages of 2 experiments, * single experiment; both values given when differing >2 fold
Description: as §1, §2

SMILES	H. inf. 49247
COC(=O)c1[nH]c(C(=O)OC)c(-c2c[nH]c3ccccc23)c1-c1c[nH]c2ccccc12 [IX]	>32
O=C(O)c1[nH]c(C(=O)O)c(-c2c[nH]c3ccc(Cl)cc23)c1-c1c[nH]c2ccc(Cl)cc12 [VIII]	>16
O=C(O)c1[nH]cc(-c2c[nH]c3ccc(Cl)cc23)c1-c1c[nH]c2ccc(Cl)cc12 [VII]	>32*
COC(=O)c1[nH]c(C(=O)OC)c(-c2c[nH]c3ncccc23)c1-c1c[nH]c2ccc(Cl)cc12 [XIII]	>32*

test system: E. faecium - Van^r (VRE 700221); test: MIC, broth microdilution (NCCLS M7-A5); assay type: cell-based; conditions: Table 4; averages of 2 experiments, * single experiment; both values given when differing >2 fold; in µg/mL
Description: as §1, §2

SMILES	VRE 700221 MIC
COC(=O)c1[nH]c(C(=O)OC)c(-c2c[nH]c3ccccc23)c1-c1c[nH]c2ccccc12 [IX]	>32
O=C(O)c1[nH]c(C(=O)O)c(-c2c[nH]c3ccc(Cl)cc23)c1-c1c[nH]c2ccc(Cl)cc12 [VIII]	>16
O=C(O)c1[nH]cc(-c2c[nH]c3ccc(Cl)cc23)c1-c1c[nH]c2ccc(Cl)cc12 [VII]	>32*
COC(=O)c1[nH]c(C(=O)OC)c(-c2c[nH]c3ncccc23)c1-c1c[nH]c2ccc(Cl)cc12 [XIII]	32*

test system: S. epidermidis - ATCC 700582; test: MIC, broth microdilution (NCCLS M7-A5); assay type: cell-based; parameters: Staph Epi 700582 MIC: unit not given here; conditions: Table 4; averages of 2 experiments, * single experiment; both values given when differing >2 fold
Description: as §1, §2

SMILES	Staph Epi 700582 MIC
COC(=O)c1[nH]c(C(=O)OC)c(-c2c[nH]c3ccccc23)c1-c1c[nH]c2ccccc12 [IX]	16
O=C(O)c1[nH]c(C(=O)O)c(-c2c[nH]c3ccc(Cl)cc23)c1-c1c[nH]c2ccc(Cl)cc12 [VIII]	>16
O=C(O)c1[nH]cc(-c2c[nH]c3ccc(Cl)cc23)c1-c1c[nH]c2ccc(Cl)cc12 [VII]	16*
COC(=O)c1[nH]c(C(=O)OC)c(-c2c[nH]c3ncccc23)c1-c1c[nH]c2ccc(Cl)cc12 [XIII]	8*
